6 molecules from patent publication EP0934249B1, “CONFORMATIONALLY RESTRICTED POLYAMINES AND THEIR USE AS ANTINEOPLASTIC AGENTS” (WISCONSIN ALUMNI RESEARCH FOUNDATION, priority 1996, dated 1998) can be followed below.

What all share (format): cell-based
Assay [1] deals with MCF7. In words: MTT assay, percent cell survival. As to conditions: Homo sapiens, MCF7, 144 h; drug concentration that killed 50% of the cultured cells; MTT six days after drug treatment; read-out: ID50(µM) MCF7. Here is the method:
(§1) Human breast cancer cell line MCF7 was grown in Richter's Improved Modified Eagle's Medium supplemented with 10% fetal bovine serum (FBS) and 2.2 g/L sodium bicarbonate. Human brain cancer cell line U251MG-NCI was grown in Dulbecco's Modified Eagle's Medium supplemented with 10% FBS. Human lung cancer cell line A549 was grown in Ham's F-12K medium (Fisher Scientific, Itasca, Illinois), supplemented with 10% FBS and 2 mM L-glutamine. Human colon cancer cell line HT29 was cultured in McCoy's 5A medium (Gibco, BRL, Gaithersburg, Maryland), supplemented with 10% FBS. Human prostate cancer cell line PC3 was grown in Dulbecco's Modified Eagles Medium supplemented with 5% FBS. The A549 and MCF7 cell lines were cultured in 100 units/mL penicillin and 100 µg/mL streptomycin. HT29 and U251MG cell lines were grown in 50 µg/mL gentamycin. PC3 cell lines were maintained in 1% antibiotic-antimycotic solution (Sigma, St. Louis, Missouri). The cell cultures were maintained at 37°C in 5% CO2/95% humidified air. All cell cultures are available from the American Type Culture Collection, Rockville, Maryland.
(§2) Here, a conventional MTT assay was used to evaluate percent cell survival. Exponentially growing monolayer cells were plated in 96-well plates at a density of 500 cells per well and allowed to grow for 24 hours. Serial dilutions of the drugs were added to the wells. Six days after drug treatment, 25 µl of MTT solution (5 mg/ml) was added to each well and incubated for 4 hours at 37°C. Then 100 µl of lysis buffer (20% sodium dodecyl sulfate, 50% DMF, and 0.8% acetic acid, pH 4.7) was added to each well and incubated for an additional 22 hours. A microplate reader ("EMAX"-brand, Molecular Devices, Sunnyvale, California) set at 570 nm was used to determine the optical density of the cultures. Results are expressed as a ratio of the optical density in drug-treated wells to the optical density in wells treated with vehicle only.
(§3) The ID50 is the drug concentration that killed 50% of the cultured cells.

For a further assay, the system named is U251MG NCl. As to the kind of experiment: MTT assay, percent cell survival. The following applies: Homo sapiens, U-251, 144 h; drug concentration that killed 50% of the cultured cells; MTT six days after drug treatment; read-out: ID50(µM) U251MG NCl. Here is the method: as §1, §2, §3
Background: Tetrazolium dyes change colour on reduction, which living cells bring about.

Another assay has as its system A549. In words: MTT assay, percent cell survival. The following applies: Homo sapiens, A549, 144 h; drug concentration that killed 50% of the cultured cells; MTT six days after drug treatment; read-out: ID50(µM) A549. Here is the method:
as §1, §2, §3

For another assay, the system named is HT-29. In words: MTT assay, percent cell survival. The following applies: Homo sapiens, HT-29, 144 h; drug concentration that killed 50% of the cultured cells; MTT six days after drug treatment; read-out: ID50(µM) HT-29. Here is the method:
as §1, §2, §3

The test system of a further assay is PC-3. In words: MTT assay, percent cell survival. The following applies: Homo sapiens, PC-3, 144 h; drug concentration that killed 50% of the cultured cells; MTT six days after drug treatment; read-out: ID50(µM) PC-3. Here is the method: as §1, §2, §3
The subject of assay [2] is MCF7. In words: colony formation (plating efficiency) cell survival assay, standard protocol of Examples 1-8. As to conditions: Homo sapiens; survival of cultured breast cancer cells MCF7; 4 hours drug exposure, colonies counted day 15-20; read-out: ED50 (the source's name). As to the method: as §1
Ten standard culture flasks for each drug to be tested were plated with 5 x 10^5 cells of a given type in 5 mL of media and allowed to incubate for 16-24 hours at 37°C.
Fresh stocks of the compounds to be evaluated are prepared. For each drug, two of the ten culture flasks prepared on Day 1 are used as controls. The control flasks are treated with solvent only. Four flasks for each compound are then treated with serially-diluted concentrations of the compound. The remaining flasks are left untouched. The cells are incubated for 4 hours at 37°C.
After 4 hours the control flasks are counted (2 counts for each flask) and the cells per mL calculated based on the average of the control counts. The cells are then re-plated into six 60 mm dishes for each flask from dilutions based on the cells/mL of the control. (In the various test runs, cell concentrations ranged from approximately 50 to approximately 800 cells per mL.)
The cells are monitored for colony formation. When visible, the cells are stained with 0.5% crystal violet (in 95% EtOH) and counted. The plating efficiency for each dish is then calculated. The plating efficiencies of the six dishes for each flask are averaged and the standard deviation is calculated. The fraction of cell survival at each concentration is determined based on the controls.

Where a name gives a salt, the structure may show the parent alone.

For the molecule `CCNCCCNC/C=C\CNCCCNCC` [SL-11047, N,N^1-bis(3-ethylaminapropyl)-(Z)-but-2-ene-1,4-diamine tetrahydrochloride], the IC50 in the assay on MCF7 [1] was determined as 9.5 µM; with U251MG NCl, 0.55 µM; in the assay with A549, 0.25 µM; in the assay on HT-29, 1.6 µM; in the assay with PC-3, 3.6 µM. Also, the EC50 in the assay with MCF7 [2] is 1490 nM.

Turning to `CCNCCCNCC1CCC1CNCCCNCC` (stereo not drawn) [SL-11044, N-Ethyl-N'-(2-(3'-ethylamino-propylaminomethyl)-trans-cyclobutylmethyl)-propane1,3-diaminetetrahydrochloride], the IC50 with MCF7 [1] was above 31.2 µM; with U251MG NCl, 0.12 µM; with HT-29, 1.6 µM; with PC-3, above 31.2 µM. In addition, in the assay with MCF7 [2], the EC50 worked out at 1790 nM.

For the molecule `CCNCCCNC[C@@H]1C[C@@H]1CNCCCNCC` [SL-11037, N-Ethyl-N'-(2-(3'-ethylamino-propylaminomethyl)-cis-cyclopropylmethyl)-propane 1,3-diamine tetrahydrochloride], the IC50 is above 31.2 µM with MCF7 [1], 0.12 µM with A549, 1.6 µM with HT-29 and 7.4 µM in the assay with PC-3. In addition, the EC50 with MCF7 [2] worked out at 1640 nM.

As for `CCNCCCNC/C=C/CNCCCNCC` [SL-11048, N,Nl-bis(3-ethylaminopropyl)-(E)-but-2-ene-1,4-diamine tetrahydrochloride, reference compound], the IC50 was above 31.2 µM with MCF7 [1]; 2 µM with U251MG NCl; 0.26 µM in the assay with A549; 1.4 µM with HT-29; 1.4 µM in the assay with PC-3. Also, in the assay with MCF7 [2], the EC50 was 1490 nM.

With `CCNCCCNC[C@H]1CC[C@H]1CNCCCNCC` [SL-11043, N-Ethyl-N'-(2-(3'-ethylamino-propylaminomethyl)-cis-cyclobutylmethyl)-propanel,3-diamine tetrahydrochloride], the IC50 is 25.5 µM in the assay with MCF7 [1], 1.5 µM in the assay on HT-29 and above 31.2 µM in the assay on PC-3. For the same molecule, the EC50 in the assay on MCF7 [2] was found to be 1640 nM.

Turning to `CCNCCCNCC1CC1CNCCCNCC` (stereo not drawn) [SL-11038, N-Ethyl-N'-(2-(3'-ethylamino-propylaminomethyl)-trans-cyclopropylmethyl)-propane-1,3-diamine tetrahydrochloride], the IC50 is above 31.2 µM in the assay with MCF7 [1], 0.25 µM in the assay on A549, 1.4 µM with HT-29 and 12.4 µM in the assay on PC-3. The EC50 in the assay on MCF7 [2] amounted to 1340 nM.
